# Data from US20200031785A1, “METHODS FOR TREATING CHRONIC PAIN AND OPIOID DEPENDENCE USING ADENYLYL CYCLASE INHIBITORS” (Purdue Research Foundation, priority 2017, published 2020).
# Read-outs that look alike come from different tables or passages of the source.
# Key:
# [1] = biological target: T1, hAC1 (Homo sapiens, UniProt Q08828); experiment: Cyclic AMP accumulation in HEK cells stably expressing AC1, stimulated with A23187 (HTRF); type: cell-based; details: for inhibition at 30 µM: HEK293; for Selectivity AC1 vs AC8: AC8 IC50/AC1 IC50, in the absence of AC8 IC50, estimate based on IC50 ≥30 μM
# T1 construct: expressed in transfected cells
# Procedure: The development and mechanistic characterization of AC1-selective small molecule inhibitors is believed to provide novel non-opioid weapons in the war on chronic pain. We identified our initial hits via screening 10,000 selected compounds from the Life Chemicals collection. The screen was carried out using HEK cells stably expressing AC1 (HEK-AC1) and cyclic AMP accumulation was stimulated using the Ca^2+ ionophore, A23187 to selectively activate AC1. Compounds with potential chemical liabilities and PAINs were removed from further evaluation (Baell and Holloway, J. Med. Chem. 2010, 53, 2719-2740).
# (§1) Fresh powders of several robust inhibitors (>90% inhibition) were evaluated in multiple confirmation assays assessing the dose response relationship for inhibiting AC1 and AC8 activity. Confirmation assays used A23817 to selectively stimulate recombinant AC1 or AC8 in the HEK cell background (Cumbay and Watts (2001), J. Pharmacol Exp Ther 297:1201-1399). This approach takes advantage of one unique regulatory property of AC1 for the development of selective inhibitors. Both AC1 and AC8 are robustly activated by Ca^2+/CaM under a variety of conditions, whereas the effects of Ca^2+/CaM on AC3 are modest and conditional requiring activation by G proteins. Previous studies have identified unique Ca^2+/CaM binding domains as one possible site of interaction to achieve AC1 (vs. AC8) selectivity (Masada et al., 2012, Biochemistry 51:7917-7929).
# (§2) The primary technology we employed to measure cAMP accumulation was a homogenous time-resolved fluorescence (HTRF) assay, the same technology utilized in the primary screen. […] This could be due to either 1) the chemical scaffolds are exquisitely selective toward the AC family of enzymes or 2) the library has not been screened against a sufficient number of targets. The answer is likely a combination of the two; nonetheless, the lack of biological data to date bodes well for these series and any potential off-target promiscuity.
# (§3) Human embryonic kidney (HEK) cells stably expressing AC1, AC8, or AC1 with the MOR were cultured in Dulbecco's Modified Eagle Medium (Life Technologies, Grand Island, N.Y.) supplemented with 5% bovine calf serum (Hyclone, Logan, Utah), 5% fetal clone I (Hyclone), Antibiotic-Antimycotic (Life Technologies), and G418 (Invivogen, San Diego, Calif.) (HEK-AC1), or hygromycin B (Fisher Scientific, Pittsburgh, Pa.) (HEK-AC8), or G418 and puromycin (Sigma-Aldrich) (HEK-AC1/MOR). Chinese hamster ovary (CHO) cells expressing the MOR (CHO-MOR) in the PathHunter® β-Arrestin GPCR assay platform were purchased from DiscoveRx (Freemont, Calif.). Cells were grown in Ham's F12 media supplemented with 1 mM L-glutamine (Thermo Scientific, West Palm Beach, Fla.), 10% fetal bovine serum (Hyclone), 50 U/ml penicillin, 50 μg/ml streptomycin (Life Technologies), G418 and hygromycin B. Cells were grown and frozen as previously described (J. M. Conley, et al., J Vis Exp, e51218 (2014)).
# (§4) Cyclic AMP accumulation was measured as previously described (Brust, et al., J. Pharmacol. Exp. Ther. 352, 480-493(2015)). Briefly, cryopreserved cells were thawed, resuspended in optiMEM (Life Technologies), and plated in white, flat bottom, low-volume, tissue culture-treated 384 well plates (PerkinElmer, Shelton, Conn.). Plates with cells were incubated in a 37° C. humidified incubator for 1 h. Inhibitors were added and plates were incubated at room temperature for 30 min followed by the addition of AC stimulants in the presence of 500 μM IBMX. Cells were incubated at room temperature for 1 h and cAMP accumulation was measured using Cisbio's cAMP kit (Cisbio Bioassays, Bedford, Mass.) according to the manufacturer's instructions.
# [2] = biological target: T2, hAC2 (Homo sapiens, UniProt Q08462); experiment: Cyclic AMP accumulation in stable HEK-AC2 cells, stimulated with 100 nM PMA; type: cell-based; details: for hAC2 % Inhib.: % inhibition at 30 μM, 100 nM PMA-stimulated, negative = potentiated response, n = 2
# T2 construct: expressed in transfected cells
# Procedure: as §4
# [3] = biological target: T3, hAC8 (Homo sapiens, UniProt P40145); experiment: Cyclic AMP accumulation in HEK cells stably expressing AC8, stimulated with A23187 (HTRF); type: cell-based; details: for inhibition at 30 µM: HEK293; for hAC8 % Inhib.: % inhibition at 30 μM (negative values indicate a potentiated response)
# T3 construct: expressed in transfected cells
# Procedure: as §1, §2, §3, §4
# [4] = tested on: AC1-HEK cells
# [5] = biological target: T4, hAC5 (Homo sapiens, UniProt O95622); experiment: Cyclic AMP accumulation in stable HEK-AC5 cells, stimulated with 300 nM forskolin; type: cell-based; details: % inhibition at 30 μM, 300 nM forskolin-stimulated, negative = potentiated response, n = 2
# T4 construct: expressed in transfected cells
# Procedure: as §4
# [6] = tested on: chronic pain responses; details: both mice and rats; cited from earlier work
# [7] = tested on: AC1-HEK cells; details: data from Brust et al. 2017; cited from earlier work
# [8] = biological target: T2, hAC2; details: data from Brust et al. 2017; % inhibition at 30 μM, PMA-stimulated, negative = potentiated; cited from earlier work
# [9] = biological target: T4, hAC5; details: data from Brust et al. 2017; % inhibition at 30 μM, forskolin-stimulated, negative = potentiated; cited from earlier work
# [10] = HEK-AC1 cells, read-out: HEK-AC1 IC50
# [11] = HEK-AC8 cells, read-out: HEK-AC8 IC50
# [12] = stable HEK cell line, A23187-stimulated cAMP accumulation, n ≥ 3
# [13] = stable HEK cell line, A23187-stimulated cAMP accumulation, n ≥ 3, read-out: hAC1 IC50
# [14] = stable HEK cell line, A23187-stimulated cAMP accumulation, n ≥ 3, read-out: hAC8 IC50
# T3 sequence (P40145 whole entry): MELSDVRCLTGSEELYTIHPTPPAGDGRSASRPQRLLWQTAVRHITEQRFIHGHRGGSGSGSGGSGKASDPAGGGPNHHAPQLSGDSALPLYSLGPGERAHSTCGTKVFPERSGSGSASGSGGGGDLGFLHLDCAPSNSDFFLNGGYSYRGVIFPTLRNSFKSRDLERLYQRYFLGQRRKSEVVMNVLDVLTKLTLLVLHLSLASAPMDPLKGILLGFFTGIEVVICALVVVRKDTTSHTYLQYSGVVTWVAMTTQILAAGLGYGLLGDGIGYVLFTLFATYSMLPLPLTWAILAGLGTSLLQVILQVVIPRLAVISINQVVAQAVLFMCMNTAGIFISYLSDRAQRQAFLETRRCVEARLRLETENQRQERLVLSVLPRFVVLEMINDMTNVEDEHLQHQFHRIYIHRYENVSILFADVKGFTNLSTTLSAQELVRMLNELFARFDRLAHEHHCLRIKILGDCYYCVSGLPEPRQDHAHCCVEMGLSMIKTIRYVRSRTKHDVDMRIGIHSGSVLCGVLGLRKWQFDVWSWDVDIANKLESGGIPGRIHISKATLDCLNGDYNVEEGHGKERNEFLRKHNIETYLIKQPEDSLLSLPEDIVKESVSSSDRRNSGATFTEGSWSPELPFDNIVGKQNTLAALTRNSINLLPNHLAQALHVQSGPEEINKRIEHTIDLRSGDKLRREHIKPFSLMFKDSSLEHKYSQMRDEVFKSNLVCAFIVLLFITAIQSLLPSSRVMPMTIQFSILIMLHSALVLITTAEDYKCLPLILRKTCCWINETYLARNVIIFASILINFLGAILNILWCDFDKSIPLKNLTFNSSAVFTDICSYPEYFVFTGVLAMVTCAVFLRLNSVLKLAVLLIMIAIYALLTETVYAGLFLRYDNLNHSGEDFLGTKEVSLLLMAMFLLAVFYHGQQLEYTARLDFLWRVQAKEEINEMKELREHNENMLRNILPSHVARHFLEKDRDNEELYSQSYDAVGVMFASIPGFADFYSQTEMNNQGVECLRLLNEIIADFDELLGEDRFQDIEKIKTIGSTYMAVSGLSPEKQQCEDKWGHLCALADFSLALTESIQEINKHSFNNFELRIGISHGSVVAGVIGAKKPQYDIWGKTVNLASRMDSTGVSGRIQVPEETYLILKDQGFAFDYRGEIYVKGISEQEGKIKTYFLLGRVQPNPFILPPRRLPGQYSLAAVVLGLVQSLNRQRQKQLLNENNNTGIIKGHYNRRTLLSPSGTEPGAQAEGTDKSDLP
# T4 sequence (O95622 whole entry): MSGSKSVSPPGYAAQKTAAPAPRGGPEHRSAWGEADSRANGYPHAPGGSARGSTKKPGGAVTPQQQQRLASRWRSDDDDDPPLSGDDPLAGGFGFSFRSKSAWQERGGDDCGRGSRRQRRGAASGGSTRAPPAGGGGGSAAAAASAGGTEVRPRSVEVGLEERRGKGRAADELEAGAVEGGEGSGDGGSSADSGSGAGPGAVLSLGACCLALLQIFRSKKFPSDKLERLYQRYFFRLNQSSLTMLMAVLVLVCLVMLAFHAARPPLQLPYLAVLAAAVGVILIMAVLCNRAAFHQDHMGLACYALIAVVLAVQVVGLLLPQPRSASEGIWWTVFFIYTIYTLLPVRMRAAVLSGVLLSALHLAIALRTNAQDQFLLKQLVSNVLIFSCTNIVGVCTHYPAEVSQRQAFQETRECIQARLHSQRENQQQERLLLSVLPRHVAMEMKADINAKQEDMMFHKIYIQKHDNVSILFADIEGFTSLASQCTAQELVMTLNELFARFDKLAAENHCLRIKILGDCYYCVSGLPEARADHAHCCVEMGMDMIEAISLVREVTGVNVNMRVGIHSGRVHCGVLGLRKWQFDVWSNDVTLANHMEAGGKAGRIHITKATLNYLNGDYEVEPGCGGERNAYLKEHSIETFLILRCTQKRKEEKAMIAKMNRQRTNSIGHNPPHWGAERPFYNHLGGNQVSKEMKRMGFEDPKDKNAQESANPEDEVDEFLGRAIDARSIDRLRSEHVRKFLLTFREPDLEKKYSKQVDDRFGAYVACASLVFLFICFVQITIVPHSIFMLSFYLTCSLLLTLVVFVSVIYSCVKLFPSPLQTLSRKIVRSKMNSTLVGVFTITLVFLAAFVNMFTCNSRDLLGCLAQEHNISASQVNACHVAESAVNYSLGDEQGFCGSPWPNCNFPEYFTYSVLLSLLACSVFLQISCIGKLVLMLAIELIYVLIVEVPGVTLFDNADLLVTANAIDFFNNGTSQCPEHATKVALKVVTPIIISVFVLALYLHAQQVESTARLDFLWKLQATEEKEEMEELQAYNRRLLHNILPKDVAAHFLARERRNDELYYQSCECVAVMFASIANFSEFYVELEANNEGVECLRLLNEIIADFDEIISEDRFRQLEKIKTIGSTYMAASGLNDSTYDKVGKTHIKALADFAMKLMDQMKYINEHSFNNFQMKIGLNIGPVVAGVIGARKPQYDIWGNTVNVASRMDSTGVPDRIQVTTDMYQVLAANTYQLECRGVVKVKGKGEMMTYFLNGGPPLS
# T2 sequence (Q08462 whole entry): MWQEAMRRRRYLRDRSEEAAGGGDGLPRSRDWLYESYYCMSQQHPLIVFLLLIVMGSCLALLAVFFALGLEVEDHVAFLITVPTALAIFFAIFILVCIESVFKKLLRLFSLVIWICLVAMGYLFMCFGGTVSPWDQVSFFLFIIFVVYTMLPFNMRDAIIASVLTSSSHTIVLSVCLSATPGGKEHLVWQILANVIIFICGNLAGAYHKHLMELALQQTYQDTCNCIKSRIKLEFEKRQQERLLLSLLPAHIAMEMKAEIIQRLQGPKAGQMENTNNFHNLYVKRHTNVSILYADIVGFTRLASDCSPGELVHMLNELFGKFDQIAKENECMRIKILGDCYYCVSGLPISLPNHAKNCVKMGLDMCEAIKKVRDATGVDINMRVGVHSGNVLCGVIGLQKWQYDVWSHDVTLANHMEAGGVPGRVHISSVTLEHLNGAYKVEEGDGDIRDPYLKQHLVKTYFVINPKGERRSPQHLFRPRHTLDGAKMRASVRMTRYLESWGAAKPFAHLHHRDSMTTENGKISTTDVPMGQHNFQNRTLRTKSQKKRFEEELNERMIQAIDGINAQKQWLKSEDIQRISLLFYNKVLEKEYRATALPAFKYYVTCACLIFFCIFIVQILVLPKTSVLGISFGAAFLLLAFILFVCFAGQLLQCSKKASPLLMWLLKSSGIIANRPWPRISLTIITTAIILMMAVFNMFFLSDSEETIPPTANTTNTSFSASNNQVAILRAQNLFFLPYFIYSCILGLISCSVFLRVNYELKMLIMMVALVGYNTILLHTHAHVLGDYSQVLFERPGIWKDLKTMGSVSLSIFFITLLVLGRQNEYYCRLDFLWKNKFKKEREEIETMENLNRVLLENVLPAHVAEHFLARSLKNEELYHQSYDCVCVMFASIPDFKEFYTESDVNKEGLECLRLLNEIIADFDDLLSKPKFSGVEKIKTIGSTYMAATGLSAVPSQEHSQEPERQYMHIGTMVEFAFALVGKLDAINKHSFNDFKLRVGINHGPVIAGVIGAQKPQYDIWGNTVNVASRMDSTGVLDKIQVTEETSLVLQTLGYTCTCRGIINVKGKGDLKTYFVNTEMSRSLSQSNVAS
# T1 sequence (Q08828 whole entry): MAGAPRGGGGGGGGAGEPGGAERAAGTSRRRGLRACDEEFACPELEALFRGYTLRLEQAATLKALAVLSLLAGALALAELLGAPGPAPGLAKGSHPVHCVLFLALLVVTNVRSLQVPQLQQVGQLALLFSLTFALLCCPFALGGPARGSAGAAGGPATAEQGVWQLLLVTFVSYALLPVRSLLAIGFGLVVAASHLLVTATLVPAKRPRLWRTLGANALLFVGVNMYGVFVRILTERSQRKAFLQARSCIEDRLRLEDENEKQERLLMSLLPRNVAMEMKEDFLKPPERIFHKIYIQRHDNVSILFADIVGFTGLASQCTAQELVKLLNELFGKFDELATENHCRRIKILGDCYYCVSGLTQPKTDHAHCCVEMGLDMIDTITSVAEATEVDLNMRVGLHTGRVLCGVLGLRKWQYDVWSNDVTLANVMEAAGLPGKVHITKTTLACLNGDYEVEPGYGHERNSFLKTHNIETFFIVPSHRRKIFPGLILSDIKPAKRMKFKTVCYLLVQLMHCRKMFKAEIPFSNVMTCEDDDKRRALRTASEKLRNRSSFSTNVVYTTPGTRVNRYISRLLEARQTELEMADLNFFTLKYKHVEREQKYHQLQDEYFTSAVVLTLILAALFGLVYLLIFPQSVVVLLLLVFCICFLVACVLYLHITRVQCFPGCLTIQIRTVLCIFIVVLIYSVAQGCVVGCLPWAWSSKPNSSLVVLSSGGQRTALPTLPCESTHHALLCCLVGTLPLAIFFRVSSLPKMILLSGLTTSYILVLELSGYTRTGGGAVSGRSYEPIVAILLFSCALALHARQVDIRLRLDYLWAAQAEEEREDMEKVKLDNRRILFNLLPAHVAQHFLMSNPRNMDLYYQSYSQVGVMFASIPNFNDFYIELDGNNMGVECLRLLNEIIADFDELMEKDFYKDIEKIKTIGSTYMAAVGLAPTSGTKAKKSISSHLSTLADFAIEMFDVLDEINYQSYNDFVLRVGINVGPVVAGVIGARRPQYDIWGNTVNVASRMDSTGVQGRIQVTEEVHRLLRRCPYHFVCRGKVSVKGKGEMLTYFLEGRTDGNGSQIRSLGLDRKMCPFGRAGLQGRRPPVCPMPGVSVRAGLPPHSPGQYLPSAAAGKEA
inhibition at 30 µM ([1]; HEK-AC1 cells) [%],inhibition at 30 µM ([3]; HEK-AC8 cells) [%],"IC50 [1, 10] [µM]","IC50 [3, 11] [µM]",Selectivity AC1 vs AC8 [1],"hAC1 % Inhib. [1, 12] [%]","IC50 [1, 13] [µM]",hAC2 % Inhib. [2] [%],hAC5 % Inhib. [5] [%],hAC8 % Inhib. [3] [%],SMILES,Viability % Vehicle [4] [% Vehicle],other results
12 ± 4,13 ± 7,–,–,–,–,–,–,–,–,"O=C(Nc1nnc(-c2ccc(F)cc2)o1)c1ccccc1F [AC10060, 2-fluoro-N-(5-(4-fluorophenyl)-1,3,4-oxadiazol-2-yl)benzamide]",–,"inhibition at 10 µM ([2]; HEK-AC2 cells, 10 μM, (−) = negative inhibition (potentiated response)): 3 ± 6%"
97 ± 1,90 ± 10,2.8 ± 0.6,7.5 ± 1,–,–,–,–,–,–,"O=C(Nc1nnc(-c2ccc(F)cc2)o1)c1ccc(-c2ccccc2)cc1 [AC10066, N-(5-(4-fluorophenyl)-1,3,4-oxadiazol-2-yl)-[1,1′-biphenyl]-4-carboxamide]",–,–
93 ± 5,75 ± 12,4.6 ± 2,9 ± 5,–,–,–,–,–,–,"Cc1ccc(C(=O)Nc2nnc(-c3ccc(F)cc3)o2)cc1C(F)(F)F [AC10067, N-(5-(4-fluorophenyl)-1,3,4-oxadiazol-2-yl)-4-methyl-3-(trifluoromethyl)benzamide]",–,–
97 ± 1,80 ± 9,5 ± 1,6 ± 1,–,–,–,–,–,–,"COc1cc(C(=O)Nc2nnc(-c3ccc(F)cc3)o2)cc(C(F)(F)F)c1 [AC10068, N-(5-(4-fluorophenyl)-1,3,4-oxadiazol-2-yl)-3-methoxy-5-(trifluoromethyl)benzamide]",–,–
96 ± 1,83 ± 7,9.6 ± 1,15 ± 2,–,–,–,–,–,–,"Cc1cc(C(=O)Nc2nnc(C3CCCCC3)o2)cc(C(F)(F)F)c1 [AC10069, N-(5-cyclohexyl-1,3,4-oxadiazol-2-yl)-3-methyl-5-(trifluoromethyl)benzamide]",–,–
90 ± 2,79 ± 11,4.8 ± 1,9 ± 1,–,–,–,–,–,–,"COc1cc(C(=O)Nc2nnc(C3CCCCC3)o2)cc(C(F)(F)F)c1 [AC10070, N-(5-cyclohexyl-1,3,4-oxadiazol-2-yl)-3-methoxy-5-(trifluoromethyl)benzamide]",–,–
100 ± 1,83 ± 7,3.7 ± 1,7 ± 1,–,–,–,–,–,–,"Cc1ccc(C(=O)Nc2nnc(C3CCCCC3)o2)cc1C(F)(F)F [AC10071, N-(5-cyclohexyl-1,3,4-oxadiazol-2-yl)-4-methyl-3-(trifluoromethyl)benzamide]",–,–
85 ± 4,78 ± 13,9.1 ± 3,2.4 ± 0.02,–,–,–,–,–,–,"Cc1cc(C(=O)Nc2nnc(-c3ccc4c(c3)CCCC4)o2)cc(C(F)(F)F)c1 [AC10072, 3-methyl-N-(5-(5,6,7,8-tetrahydronaphthalen-2-yl)-1,3,4-oxadiazol-2-yl)-5-(trifluoromethyl)benzamide]",–,–
64 ± 8,65 ± 12,26 ± 11,13 ± 2,–,–,–,–,–,–,"Cc1ccc(C(=O)Nc2nnc(-c3ccc4c(c3)CCCC4)o2)cc1C(F)(F)F [AC10073, 4-methyl-N-(5-(5,6,7,8-tetrahydronaphthalen-2-yl)-1,3,4-oxadiazol-2-yl)-3-(trifluoromethyl)benzamide]",–,–
85 ± 3,79 ± 6,9.4 ± 1,10 ± 0.4,–,–,–,–,–,–,"COc1cc(C(=O)Nc2nnc(-c3ccc4c(c3)CCCC4)o2)cc(C(F)(F)F)c1 [AC10074, 3-methoxy-N-(5-(5,6,7,8-tetrahydronaphthalen-2-yl)-1,3,4-oxadiazol-2-yl)-5-(trifluoromethyl)benzamide]",–,–
–,–,–,–,2-fold,99 ± 1,9.1 ± 2,−6,4,74 ± 13,CC1CC(C)CN(S(=O)(=O)c2ccc(C(=O)Nc3nnc(-c4cccs4)o3)cc2)C1 (stereo not shown) [F0559-0346],118 ± 2,"IC50 [3, 14]: 17 ± 6 µM"
–,–,–,–,9-fold,101 ± 1,2 ± 0.2,-7,−10,79 ± 1,O=C(Nc1nnc(-c2ccc3c(c2)OCCO3)o1)c1ccc(Br)cc1 [F0608-0011],125 ± 3,"IC50 [3, 14]: 18 ± 2 µM"
–,–,–,–,10-fold,101 ± 1,2.1 ± 0.4,-95,−34,76 ± 8,O=C(Nc1nnc(-c2ccc3c(c2)CCCC3)o1)c1ccccc1 [F0608-0538],118 ± 6,"IC50 [3, 14]: 21 ± 4 µM"
–,–,–,–,–,99 ± 1,0.5 ± 0.1,−70,9,20 ± 1,CCc1cc(=O)[nH]c(-n2nc(C)cc2NC(=O)c2ccccc2F)n1 [F2215-0213],101 ± 17,–
–,–,–,–,>30-fold,100 ± 1,0.9 ± 0.2,32,13,34 ± 7,CCc1c(C)nc(-n2nc(C)cc2NC(=O)c2ccco2)[nH]c1=O [F2215-0772],93 ± 1,–
–,–,–,–,>5-fold,99 ± 1,5.9 ± 0.4,−185,−21,35 ± 8,CSc1ccccc1C(=O)Nc1cc(C)nn1-c1nc2c(c(=O)[nH]1)CCC2 [F2215-0954],106 ± 14,–
–,–,–,–,>4-fold,99 ± 1,7.5 ± 2,−210,-28,31 ± 2,CSc1cccc(C(=O)Nc2nnc(C3CCCCC3)o2)c1 [F2289-0107],117 ± 1,–
–,–,–,–,–,–,–,–,–,–,Nc1ncnc2c1ncn2CCNCCCCCO [NB001],–,effect on chronic pain responses (inflammatory and neuropathic) [6]: markedly attenuated chronic pain responses
–,–,–,–,–,–,–,–,–,–,"O=c1cc(C(Cl)(Cl)Cl)oc2ccc(Cl)cc12 [ST034307, 6-chloro-2-(trichloromethyl)-4H-chromen-4-one]",–,Viability % Vehicle [7]: 85 ± 6 % Vehicle; hAC2 % Inhib. [8]: −142%; hAC5 % Inhib. [9]: −44%
